This experiment concerns MDA175-VII (NRG1-DOC4 fusion) cells. The experiment is described as follows: Cell viability of MDA175-VII (NRG1-DOC4 fusion) cells, Cell Titer Glo assay. Format: cell-based. The settings on record: 72 hours. As for the experimental part: FIG. 1A. Representative dose response curves of MDA175-VII (NRG1-DOC4 fusion) treated with the indicated IACS novel quinazoline-based TKIs for 72 hours. Cell viability was determined by Cell Titer Glo Assay.
FIG. 3A. Representative dose response curves of MDA175-VII (NRG1-DOC4 fusion) treated with the indicated anti-HER2 therapy with or without low dose treatment of IACS inhibitors for 72 hours. Cell viability was determined by Cell Titer Glo Assay.
Cell viability was determined by the Cell Titer Glo assay.

[1] abbreviates: MDA175-VII (NRG1-DOC4 fusion) cells treated with IACS inhibitors.
Where [2] appears, read: MDA175-VII (NRG1-DOC4 fusion) cells treated with anti-HER2 antibodies with or without low dose IACS inhibitors.

Turning to `C=CC(=O)N1CC(Oc2cc3c(Nc4ccc(Cl)c(Cl)c4)ncnc3cc2OC)C1` [IACS-015285], under setting [1], 0.268 nM corresponded to half-maximal inhibition (IC50). The same measure, in the same setting: to `C=CC(=O)N1CC(Oc2cc3c(Nc4ccc(Cl)c(Cl)c4F)ncnc3cc2OC)C1` [IACS-015293] belongs 0.16 nM; to `C=CC(=O)N1CC(Oc2ccc3ncnc(Nc4ccc(Cl)c(Cl)c4)c3n2)C1` [IACS-052336], 26.8 nM; to `C=CC(=O)N1CCC(Oc2cc3c(Nc4ccc(Cl)c(Cl)c4F)c(C#N)cnc3cc2OC)CC1` [IACS-070709], 1.29 nM. The same measure, in the same setting: to `C=CC(=O)N1CC(Oc2cc3c(Nc4ccc(Cl)cc4Cl)ncnc3cc2OC)C1` [IACS-070863] belongs 10.5 nM; to `C=CC(=O)N1CC(Oc2cc3c(Nc4ccc(Br)c(Cl)c4)ncnc3cc2OC)C1` [IACS-070864], 0.979 nM; to `C=CC(=O)N1CC(Oc2cc3c(Nc4ccccc4)ncnc3cc2OC)C1` [IACS-070871], 1.08 nM. On to `C=CC(=O)N1CCC(Oc2cc3c(Nc4ccc(Cl)c(Cl)c4F)ncnc3cc2OC)C1` (centres unmarked) [IACS-070968], for which the IC50 (usually the concentration needed to halve the response being measured) under setting [1] was determined as 3.12 nM. On the same count and under the same terms, as for `C=CC(=O)N1CCC(Oc2cc3c(Nc4ccc(Cl)c(Cl)c4)ncnc3cc2OC)CC1` [IACS-070979], the figure is 0.157 nM; as for `C=CC(=O)N1CCC(Oc2cc3c(Nc4ccc(Cl)cc4Cl)ncnc3cc2OC)CC1` [IACS-070980], 4.46 nM; as for `C=CC(=O)N1CCC(Oc2cc3c(Nc4ccc(Br)c(Cl)c4)ncnc3cc2OC)CC1` [IACS-070982], 0.296 nM. On the same count and under the same terms, as for `C=CC(=O)N1CCC(Oc2cc3c(Nc4ccccc4)ncnc3cc2OC)CC1` [IACS-070989], the figure is 1.03 nM. Compound “Pertuzumab: recombinant, humanized monoclonal antibody that inhibits dimerization of HER2 [reference compound]” yielded an IC50 under setting [2] of 58.2 nM. Same read-out and setting: to T-DM1 [reference compound] belongs 652 nM.

Source of the values: patent publication US20230121116A1, “USE OF QUINAZOLINE-BASED TYROSINE KINASE INHIBITORS FOR THE TREATMENT OF CANCERS WITH NRG1 FUSIONS” (Board of Regents, The University of Texas System, priority 2020, published 2023).
